{"source": "patent US20020099050A1", "about": "“Drugs that enhance synaptic responses mediated by AMPA receptors” (priority 1993, published 2002)", "key": {"AMPA receptor [1]": {"system": "AMPA receptor", "conditions": "cited from earlier work"}, "[2]": {"conditions": "rat, in vivo, ip", "text": "To test the ability of invention compounds to pass the blood-brain barrier, Invention Compound II was labelled with carbon-11.\nRadiolabelled Invention Compound II (see the table above) is synthesized by the following scheme (wherein the numbers in parenthesis refer to the quantity of reagent used, in millimoles): [drawing 31]\nwherein Ar is aryl (such as methylenedioxybenzene), Im is imidazole (thus, ImHCl is imidazole hydrochloride), and R is an alkyl or alkylene radical (so that R2NH is, for example, piperidine). ^11C-labelled CO2 is produced by cyclotron irradiation and subsequently used in the above-described synthetic scheme. The time to complete the synthesis is about […] (2 times the half-life of carbon-11). After purification of [^11C]II on C18 Sep Pak, 260 μCi was diluted with 20 mg of nonradioactive II as carrier in a 1-ml solution of 23% propylene glycol and 10% ethanol in physiologically-buffered saline in order to simulate the dosage of 100 mg/Kg that was used in behavioral studies. The final 1 ml of solution was administered to a 200 g rat under halothane anesthesia (1.4-1.7% in oxygen) by intraperitoneal (i.p.) injection.\nBiodistribution of the radiotracer in the body of the rat was monitored by a positron camera (Scanditronix PC2048-15B) and the time-activity curves were constructed using a Vax 3500 (Digital Equipment Corporation) and shown in FIG. 5."}, "AMPA receptors [3]": {"biological_target": "T1, AMPA receptors", "T1 construct": "EC50 (percent increase in field EPSP amplitude); other: estimated from log dose/response curves; maximal response of 85; effect on field EPSP amplitude and duration; other: 1.5 mM, 15 minute infusion; enhancement of the area of the field EPSP; other: 100 μM; mean and S.D. of 4", "assay": "field EPSPs in field CA1 of in vitro slices of rat hippocampus", "type": "cell-based", "conditions": "for EC50: estimated from log dose/response curves, maximal response of 85% increase assumed where limited solubility prevented a maximum, read-out: EC50 (percent increase in field EPSP amplitude)", "experimental": "The physiological effects of invention compounds can be tested in vitro with slices of rat hippocampus as follows. Excitatory responses (field EPSPs) are measured in hippocampal slices which are maintained in a recording chamber continuously perfused with artificial cerebrospinal fluid (ACSF).\nTo conduct these tests, the hippocampus was removed from anesthetized, 2 month old Sprague-Dawley rats and in vitro slices (400 micrometers thick) were prepared and maintained in an interface chamber at 35° C. using conventional techniques [see, for example, Dunwiddie and Lynch, J. Physiol. Vol. 276: 353-367 (1978)]. The chamber was constantly perfused at 0.5 ml/min with ACSF containing (in mM): NaCl 124, KCl 3, KH2PO4 1.25, MgSO4 2.5, CaCl2 3.4, NaHCO3 26, glucose 10 and L-ascorbate 2. A bipolar nichrome stimulating electrode was positioned in the dendritic layer (stratum radiatum) of the hippocampal subfield CA1 close to the border of subfield CA3.\nCurrent pulses (0.1 msec) through the stimulating electrode activate a population of the Schaffer-commissural (SC) fibers which arise from neurons in the subdivision CA3 and terminate in synapses on the dendrites of CA1 neurons. Activation of these synapses causes them to release the transmitter glutamate. Glutamate binds to the post-synaptic AMPA receptors which then transiently open an associated ion channel and permit a sodium current to enter the postsynaptic cell. This current results in a voltage in the extracellular space (the field excitatory post-synaptic potential or field “EPSP”) which is recorded by a high impedance recording electrode positioned in the middle of the stratum radiatum of CA1.\nFor the experiments summarized in FIG. 1, the intensity of the stimulation current was adjusted to produce half-maximal EPSPs (typically about 1.5-2.0 mV). Paired stimulation pulses were given every 40 sec with an interpulse interval of 200 msec (see below). The field EPSPs of the second response were digitized and analyzed to determine amplitude, half-width, and response area. If the responses were stable for 15-30 minutes (baseline), test compounds were added to the perfusion lines for a period of about 15 minutes. The perfusion was then changed back to regular ACSF.\nPaired-pulse stimulation was used since stimulation of the SC fibers, in part, activates interneurons which generate an inhibitory postsynaptic potential (IPSP) in the pyramidal cells of CA1. This feed forward IPSP typically sets in after the EPSP reaches its peak. It accelerates the repolarization and shortens the decay phase of the EPSP, and thus could partially mask the effects of the test compounds. One of the relevant features of the feed-forward IPSP is that it can not be reactivated for several hundred milliseconds following a stimulation pulse. This phenomenon can be employed to advantage to eliminate IPSP by delivering paired pulses separated by 200 milliseconds and using the second (“primed”) response for data analysis.\nThe variables set forth in the table refer to the following generic structure: […]"}, "AMPA receptors [4]": {"system": "AMPA receptors", "assay": "long-term potentiation (theta burst stimulation) in CA1 field of hippocampal slices", "type": "cell-based, rat", "conditions": "1.5 mM infused 15 minutes prior to theta burst stimulation; five experiments; p<0.02", "experimental": "Long-term potentiation (LTP; a stable increase in the EPSP size of single responses after brief periods of high frequency stimulation) was elicited in the CA1 field of hippocampal slices in the absence (see FIG. 3, stippled bars, N=6) and in the presence of 1.5 mM of Invention Compound I (see FIG. 3, striped bars, N=5). In the latter case, the amount of potentiation was determined after washing out the test compound and comparing the response size with that before test compound infusion. Data presented in FIG. 3 show the percent increase in the EPSP amplitude (mean and S.D.) at 40, 60, and 90 minutes after LTP induction.\nFor these studies, field EPSPs in slices of hippocampus were elicited by single stimulation pulses and recorded by extracellular electrodes as described in Example II. After collecting responses every 40 seconds for 20-30 minutes to establish a baseline, LTP was induced with ten short bursts of pulses delivered to the CA3 axons; each burst consisted of four pulses separated by 10 milliseconds; the interval between the bursts was 200 milliseconds. This pattern of axon stimulation mimics a discharge rhythm observed in the hippocampus of animals engaged in learning and is referred to as the “theta burst stimulation paradigm” [see, for example, Larson and Lynch in Science Vol. 232: 985-988 (1986)]. […]"}, "AMPA receptor [5]": {"system": "AMPA receptor", "type": "in vivo, rat", "conditions": "120-180 mg/kg i.p.", "experimental": "Stimulating and recording electrodes were placed in the hippocampus of anesthetized rats so as to activate and monitor the same synaptic responses as in the slice studies described in Example XV. […] The time constant for the decay of the EPSP is a measure for the duration of the response.\nIn these experiments, male Sprague-Dawley rats were anesthetized with urethane (1.7 g/kg) and body temperature was maintained at 37° C. with the use of a heat lamp. A stimulation electrode (two twisted stainless steel wires, 150 μm diameter, insulated with teflon) was placed stereotaxically in the trajectory of the Schaffer collateral (SC) pathway from CA3 to CA1 of the hippocampus (coordinates relative to Bregma: 3.5 mm P., 3.5 mm L., and 3.0-3.7 mm V). […]\nNegative field potentials reflecting dendritic EPSPs evoked by SC stimulation (0.1 ms pulses, 10-100 μA) with paired pulses (inter-pulse interval of 200 msec; see methodology described in Example XV) were amplified 500 times and digitized by computer at 20 sec intervals throughout each experiment. […] Decay time constants were determined by single exponential fits to the decay phase of the synaptic response and expressed as a percent of the value obtained during the pre-injection control period."}}}
{"compound": "COc1ccc(C(=O)N2CC[C@@H](O)C2=O)cc1", "note": "[AHP, (R)-1-p-anisoyl-3-hydroxy-2-pyrrolidinone]", "values": [{"measurement": "facilitation of AMPA receptor mediated responses in slices", "setting": "AMPA receptor [1]; nootropics tested in slices", "result": "facilitate AMPA receptor mediated responses"}]}
{"compound": "O=C(c1ccc2c(c1)OCO2)N1CCCCC1", "note": "[Compound II, 1-(1,3-benzodioxol-5-ylcarbonyl)-piperidine]", "values": [{"measurement": "brain distribution relative to head excluding the cranial cavity", "setting": "[2]", "result": "approximately equal"}, {"measurement": "brain distribution relative to heart", "setting": "[2]", "result": "two-thirds"}, {"measurement": "brain distribution relative to liver", "setting": "[2]", "result": "approximately one-quarter"}, {"measurement": "passage of the blood-brain barrier", "setting": "[2]", "result": "passes freely through the blood-brain barrier"}, {"measurement": "time to plateau of brain uptake", "setting": "[2]", "result": "5 to 10", "unit": "min"}]}
{"compound": "O=C(c1ccc2ncoc2c1)N1CC=CCC1", "note": "[Compound IX, 1-(1,3-benzoxazol-6-ylcarbonyl)-1,2,3,6-tetrahydodyridine]", "values": [{"measurement": "EC50", "setting": "AMPA receptors [3]", "result": 4, "unit": "mM"}]}
{"compound": "O=C(c1ccc2c(c1)OCCO2)N1CC=CCC1", "note": "[Compound I]", "values": [{"measurement": "fold greater increase in the response area than aniracetam", "setting": "AMPA receptors [3]; 750 μM", "result": "nine-fold"}, {"measurement": "effect on synaptic response compared with aniracetam", "setting": "AMPA receptors [3]; 750 μM versus aniracetam 1500 μM, 15 minute infusion", "result": "much larger effect"}, {"measurement": "reversibility of effect upon washout", "setting": "AMPA receptors [3]; after 15 minute infusion", "result": "fully reversible upon washout"}, {"measurement": "times greater effect on response area than aniracetam at the same concentrations", "setting": "AMPA receptors [3]; dosages in the range of 750 μM to 1.5 μM", "result": "6-9 times"}, {"measurement": "degree of stable long-term potentiation versus stimulation in absence of drug", "setting": "AMPA receptors [4]", "result": "nearly twice as large"}, {"measurement": "time within which the effect reversed after injection", "setting": "AMPA receptor [5]", "result": "60 to 120", "unit": "min"}, {"measurement": "effect on duration (decay time constant) of synaptic response", "setting": "AMPA receptor [5]; anesthetized rats, n=8", "result": "rapid increase in the duration of the synaptic response"}]}
{"compound": "O=C(c1cccc2c1OCCO2)N1CC=CC1", "note": "[Compound VIII, 1-(1,4-benzodioxan-5-ylcarbonyl)-3-pyrroline]", "values": [{"measurement": "EC50", "setting": "AMPA receptors [3]", "result": 3, "unit": "mM"}]}
{"compound": "O=C(c1ccc2ncoc2c1)N1CCCCC1", "note": "[Compound X, 1-(1,3-benzoxazol-6-ylcarbonyl)-piperidine]", "values": [{"measurement": "EC50", "setting": "AMPA receptors [3]", "result": 1.3, "unit": "mM"}]}
{"compound": "O=C(c1ccc2ocnc2c1)N1CC=CCC1", "note": "[Compound XI, 1-(1,3-benzoxazol-5-ylcarbonyl)-1,2,3,6-tetrahydropyridine]", "values": [{"measurement": "EC50", "setting": "AMPA receptors [3]", "result": 3, "unit": "mM"}]}
{"compound": "O=C(c1ccc2nc[nH]c2c1)N1CCCCC1", "note": "[Compound XII, 1-(1,3-benzimidazol-5-ylcarbonyl)-piperidine]", "values": [{"measurement": "EC50", "setting": "AMPA receptors [3]", "result": 5, "unit": "mM"}]}
{"compound": "COc1ccc(C(=O)NCCCC(=O)O)cc1", "note": "[anisoyl-GABA]", "values": [{"measurement": "aniracetam-like effects", "setting": "AMPA receptor [1]", "result": "no aniracetam-like effects"}]}
